In PubChem BioAssay (NCI):
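A five-concentration, 48-hour dose response in 96-well plates underlies each endpoint, interpolated linearly between surrounding concentrations. Here, GI50 denotes the concentration required for 50% inhibition of growth. TGI marks complete inhibition of growth.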

Legend:
Experiment in all cases: NCI anticancer screen, dose series, 48 h
[1] = system: A498 renal
[2] = system: K-562 leukemia
[3] = system: M14 melanoma
[4] = system: MOLT-4 leukemia
[5] = system: PC-3 prostate
[6] = system: SF-268 CNS
[7] = system: SF-295 CNS
[8] = system: SK-MEL-5 melanoma
[9] = system: SW-620 colon
[10] = system: UACC-257 melanoma

Structure (SMILES) | GI50 [1] [µM] | TGI [1] [µM] | GI50 [2] [µM] | TGI [2] [µM] | GI50 [3] [µM] | TGI [3] [µM] | GI50 [4] [µM] | TGI [4] [µM] | GI50 [5] [µM] | TGI [5] [µM] | GI50 [6] [µM] | TGI [6] [µM] | GI50 [7] [µM] | TGI [7] [µM] | GI50 [8] [µM] | TGI [8] [µM] | GI50 [9] [µM] | TGI [9] [µM] | GI50 [10] [µM] | TGI [10] [µM]
O=c1oc(-c2ccc(O)c(O)c2)cc2cc(O)cc(O)c12 | 27.3 | 56.7 | 41.6 | > 100 | 33.2 | 93.9 | 22.4 | > 100 | 31.6 | > 100 | 32.4 | > 100 | 43.7 | > 100 | 18 | 42.2 | 35.2 | > 100 | 38 | > 100
CCCC/C(=N\N=C(N)N)c1ccc(F)cc1 | 2.59 | 8.08 | 0.469 | 11.2 | 2.35 | 10.4 | 3.35 | 24.4 | 2.85 | 14.3 | 5.58 | 20.8 | 2.84 | 12.3 | 1.48 | 4.27 |  |  | 4.4 | 13.9
Cc1ccc(C2=Nc3c(N)ncnc3NC(c3cccc(Nc4ccnc5cc(C(F)(F)F)ccc45)c3)C2)cc1 (centres undefined) | 1.76 | 6.81 | 3.44 | > 100 | 2.11 | 5.29 | 3.4 | > 100 | 2.8 | 12.5 | 4.47 | 47.1 | 2.33 | 6.88 | 2.05 | 4.24 | 2.87 | 11.3 | 10.2 | 84.9
O=C(/C=C/N1CCN(c2cccc(C(F)(F)F)c2)CC1)c1ccc(Cl)cc1Cl | 21.6 | 38.8 | 35.8 | > 100 | 17.2 | 36.1 | 28.8 | 70.2 | 31.7 | > 100 | 28.6 | 88.8 | 14.7 | 32.4 | 19.2 | 36.9 | 38.8 | > 100 | 26.5 | 61
COc1cc(C(c2cc3c(cc2O)OCO3)N2CCCC2)cc(OC)c1OC (centres undefined) |  | 36.8 |  | 21.1 |  | > 100 |  | 20.7 |  | 34.7 |  |  |  | 36 |  | 41.5 |  | > 100 |  | 36.6
C/C(=C(/c1ccc(O)cc1)c1ccc(OCCN2CCCC2)cc1)c1ccccc1 | 1.67 | 8.49 | 1.81 | 4.77 | 1.88 | 4.08 | 2.94 | 11 | 4.28 | 14.7 | 5.58 | 20.7 | 1.95 | 4.19 | 1.72 | 3.1 | 2.28 | 5.17 | 2.03 | 3.93
O=C(N[C@@H]1CCCc2ccccc21)[C@H](CCC(=O)N1CCN(C2CCCCC2)CC1)N1C(=O)[C@@H](N2C(=O)OC[C@@H]2c2ccccc2)[C@H]1/C=C/c1ccccc1 | 1.76 | 5.3 |  |  | 1.47 | 3.31 | 2.27 | > 100 | 2.32 | 8.35 | 1.3 | 3.04 | 2.34 | 7.57 | 1.37 | 2.71 | 3.06 | 10.8 | 1.49 | 3.36
CC(CC(=O)O)(CC(=O)O)C(=O)O |  | > 100 |  | > 100 |  | > 100 |  | > 100 |  | > 100 |  | > 100 |  | > 100 |  | > 100 |  | > 100 |  | > 100
CCOP(=O)(OCC)/C(C#N)=C\c1cccc2ccccc12 |  | 98.7 |  | > 100 |  | > 100 |  | > 100 |  | > 100 |  | 64.9 |  | > 100 |  | > 100 |  | > 100 |  | > 100
CC(C)(C)n1cc(-c2ccnc(NCCNS(=O)(=O)c3ccc(Br)cc3)c2)c(-c2cccc(O)c2)n1 | 1.37 | 3.19 | 0.573 | 2.85 | 1.77 | 3.4 |  |  | 1.46 | 4.38 | 2.04 | 5.96 | 1.82 | 3.61 | 1.36 | 2.67 | 1.72 | 3.46 | 1.93 | 4.76
COc1ccc2nc3ccc(OC)cc3c(SCCCN)c2c1 | 19.4 | 56.5 | 1.67 | 3.89 | 8.48 | 31.1 | 2.2 | 6.34 | 1.71 | 4.68 | 4.67 | 14.5 | 18.3 | 38.7 | 7.82 | 25.7 | 1.44 | 3.15 | 15.6 | 29.8
Cc1c(C(C)C)cc(OCCO)cc1C(C)C |  | 96.6 |  | > 100 |  | > 100 |  | > 100 |  | 96.2 |  | > 100 |  | > 100 |  | 38.1 |  | > 100 |  | > 100
Oc1cccc(-c2nc3ccccc3s2)c1 |  | > 100 |  | > 100 |  | 60.4 |  | > 100 |  | > 100 |  | 68.7 |  | 86.7 |  |  |  | > 100 |  | > 100
COc1ccc(C2=CC(c3cc(OC)c(OC)c(OC)c3)n3ncnc3N2)cc1 (centres undefined) | 0.0426 | 25.1 | 0.0359 | > 100 | 0.0333 | > 100 | 0.171 | > 100 | 0.0536 | > 100 | 0.0833 | 29.7 | 0.0228 | 0.0742 | 0.0427 | 0.374 | 0.0484 | > 100 |  | 
O=C(Oc1c(I)ccccc1=O)c1ccc([N+](=O)[O-])cc1 |  | 17 |  | 61.9 |  | 73.3 |  |  |  | 75.1 |  | 39.8 |  | 62.1 |  | 13.6 |  | 83.6 |  | 35.1
